Reference: patent US11226337B2, “Chemoproteomic profiling of protein electrophilic and oxidative post-translational modifications” (Zenagem, LLC, priority 2017, dated 2022)

Columns and labels:
[1] = biological target: T1, PLOD1 Procollagenlysine, 2oxoglutarate (Q02809) (Homo sapiens, UniProt Q02809); experiment: SILAC RP-ABPP; type: cell-based; conditions: SILAC H/L, MDA-MB-231
T1 construct: In Situ Labelling of Cells with Hydrazine Probes for MS Experiments; endogenous in cells
T1 sequence (Q02809 19-727): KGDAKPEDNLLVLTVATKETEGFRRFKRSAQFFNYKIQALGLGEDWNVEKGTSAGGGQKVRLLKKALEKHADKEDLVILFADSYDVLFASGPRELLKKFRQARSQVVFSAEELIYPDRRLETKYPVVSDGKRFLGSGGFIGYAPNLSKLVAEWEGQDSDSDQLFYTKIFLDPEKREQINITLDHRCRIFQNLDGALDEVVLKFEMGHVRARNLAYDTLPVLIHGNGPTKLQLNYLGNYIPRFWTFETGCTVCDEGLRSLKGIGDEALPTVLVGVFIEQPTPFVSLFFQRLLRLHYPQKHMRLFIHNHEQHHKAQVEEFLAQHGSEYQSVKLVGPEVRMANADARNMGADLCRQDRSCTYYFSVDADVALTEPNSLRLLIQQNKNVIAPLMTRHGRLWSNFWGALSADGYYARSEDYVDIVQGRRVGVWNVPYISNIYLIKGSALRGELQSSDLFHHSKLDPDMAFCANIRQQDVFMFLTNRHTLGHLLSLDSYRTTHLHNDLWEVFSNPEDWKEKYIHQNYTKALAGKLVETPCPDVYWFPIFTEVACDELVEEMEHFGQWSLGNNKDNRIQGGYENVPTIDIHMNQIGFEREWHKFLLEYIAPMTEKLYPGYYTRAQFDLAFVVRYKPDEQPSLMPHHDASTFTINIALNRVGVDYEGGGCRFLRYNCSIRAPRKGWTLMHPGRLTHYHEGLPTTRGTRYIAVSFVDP

[2] = biological target: T2, GNS Nacetylglucosamine6sulfatase (P15586) (Homo sapiens, UniProt P15586); experiment: SILAC RP-ABPP; type: cell-based; conditions: SILAC H/L, MDA-MB-231
T2 construct: In Situ Labelling of Cells with Hydrazine Probes for MS Experiments; endogenous in cells
T2 sequence (P15586 37-552): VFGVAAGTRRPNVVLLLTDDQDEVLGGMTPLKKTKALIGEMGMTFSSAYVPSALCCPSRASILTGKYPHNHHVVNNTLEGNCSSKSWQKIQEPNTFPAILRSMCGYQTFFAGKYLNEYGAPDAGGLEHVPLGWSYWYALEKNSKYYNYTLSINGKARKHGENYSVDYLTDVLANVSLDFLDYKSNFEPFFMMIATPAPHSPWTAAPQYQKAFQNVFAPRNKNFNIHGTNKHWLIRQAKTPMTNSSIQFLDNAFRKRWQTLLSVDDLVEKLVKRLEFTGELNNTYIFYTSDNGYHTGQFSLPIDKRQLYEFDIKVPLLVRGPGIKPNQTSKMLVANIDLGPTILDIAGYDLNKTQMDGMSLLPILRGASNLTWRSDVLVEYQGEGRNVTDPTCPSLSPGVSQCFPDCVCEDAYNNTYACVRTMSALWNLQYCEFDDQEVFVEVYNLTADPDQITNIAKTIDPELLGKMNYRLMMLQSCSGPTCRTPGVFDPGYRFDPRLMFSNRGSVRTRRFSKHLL

Row | enrichment ratioavg ([1]; probe 2 1 mM 0.5 h vs probe 4) | competition ratioavg ([1]; probe 2 vs probe 2+10x probe 4) | enrichment ratioavg ([2]; probe 2 1 mM 0.5 h vs probe 4) | competition ratioavg ([2]; probe 2 vs probe 2+10x probe 4) | Compound | enrichment ratioavg ([1]; probe 1 3 mM 0.5 h vs probe 3) | competition ratioavg ([1]; probe 1 vs probe 1+10x probe 3) | enrichment ratioavg ([2]; probe 1 3 mM 0.5 h vs probe 3) | competition ratioavg ([2]; probe 1 vs probe 1+10x probe 3)
1 | – | – | – | – | C#CCNN.Cl [probe 1, prop-2-yn-1-ylhydrazine hydrochloride] | 6 | 3 | 10 | 3
2 | 8 | 3 | 7 | 3 | C#CCCNC(=O)c1ccc(NN)cc1.Cl [probe 2, N-(but-3-yn-1-yl)-4-hydrazinylbenzamide hydrochloride] | – | – | – | –
